This is an account of results in patent US9771358B2, “Dihydropyrimidine compounds and their application in pharmaceuticals” (SUNSHINE LAKE PHARMA CO., LTD., priority 2014, dated 2017).

SMILES strings stand for the structures. pEC50: −log10 of the molar value. Read-outs that look alike come from different tables or passages of the source.

One series relates to HBV. The series is described as follows: In-vitro anti-HBV activity in stable HBV-producing cell line (HepG2.2.15), HBV DNA by qPCR. Format: cell-based. The settings on record: Hepatitis B virus, 168 h; HepG2.2.15 cells, HBV DNA in culture fluid, day 7, top concentration 16.4 μM. In outline:
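HepG2.2.15 cells are dosed 24 hours after seeding, top concentration 16.4 μM with 3-fold dilutions over 9 points in duplicate, and medium is refreshed on day 4. Supernatant HBV DNA is quantified by qPCR on day 7 against DMSO control, and EC50 comes from a four-parameter logistic fit.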

A short description of series [1]: PK of test compounds in beagle. The format is in vivo, beagle dog. The settings on record: for Cmax / Tmax / clearance / half-life / AUC(0-inf) / AUC(0-t) / Vd: dog, plasma; for AUC(0-inf): AUC in 0 hour to infinite time; for Vd: read-out: Vss; for F: absolute bioavailability. As for the experimental part:
The test compounds were administrated to beagle dog by gavage in dose of 2.5 mg/kg or 5 mg/kg, or by intravenous injection in dose of 1 mg/kg or 2 mg/kg. Blood sample was collected at 0.083, 0.25, 0.5, 1, 2, 4, 6, 8 and 24 hours from vein after administration into anticoagulation tubes with EDTA-K2. The test compounds were extracted from plasma samples and chromatographed on a tandem mass spectrometer. Quantitation was performed using multiple reaction monitoring (MRM). Pharmacokinetic parameters were calculated using WinNonlin 6.3 software with non compartment model.

A short description of series [2]: Stability in liver microsome, human. Format: in vitro ADME. The settings on record: liver microsomes; human liver microsome 0.1 mg/mL, compound 1 μM, NADPH 2 mM. As for the experimental part: (§1) Then two parallel samples were prepared. After a 10 minutes preincubation at 37° C., 15 μL of NADPH solution (8 mM) was added according to the point-in-time. The final concentration of the text compound was 1 μM, the concentration of liver microsome was 0.1 mg/mL, the final concentration of NADPH was 2 mM. The incubations were last for 0, 15, 30, 60 min respectively, and then 150 μL of acetonitrile (include interior label) was added to the mixture system. After dilution with acetonitrile, the samples were centrifuged for 5 minutes in 4000 rpm. The supernatant liquid was collected for LC-MS/MS analysis.
For orientation: Liver microsomes are a subcellular fraction often used to study metabolism.

The nature of series [3]: Stability in liver microsome, dog. The format is in vitro ADME. The conditions noted are these: liver microsomes; dog liver microsome 0.1 mg/mL, compound 1 μM, NADPH 2 mM. As for the experimental part: as §1
A short description of series [4]: Stability in liver microsome, mouse. The format is in vitro ADME. The settings on record: liver microsomes; mouse liver microsome 0.1 mg/mL, compound 1 μM, NADPH 2 mM. Here is the method:
as §1

Series [5] can be described thus: Stability in liver microsome, monkey. The format is in vitro ADME. The conditions noted are these: liver microsomes; monkey liver microsome 0.1 mg/mL, compound 1 μM, NADPH 2 mM. As for the experimental part:
as §1

Where [6] appears, read: iv, 1 mg/kg, iv, 1 mg/kg, AUC in 0-24 hours, read-out: AUClast.
The mark [7] stands for this setting: po, 2.5 mg/kg, po, 2.5 mg/kg value multiplied by 2, read-out: AUClast ×2 (calculated by dosage).
[8] abbreviates: po, 2.5 mg/kg, po, 2.5 mg/kg, AUC in 0-24 hours, read-out: AUClast.

Usually pEC50 stands for the negative decadic logarithm of the EC50, by convention in mol/L. One may read the Cmax as the highest concentration seen after dosing. One may read the Tmax as the time at which the peak concentration occurs. For orientation: clearance means the rate of elimination divided by the concentration. The half-life is how long it takes for the measured level to halve. A word on the AUC(0-inf): it is the area under the concentration-time curve extrapolated to infinity. The CLint scaled is the capacity of the preparation to metabolise the compound, expressed as a volume cleared per time. In the case of `CCOC(=O)C1=C(CN2CCO[C@H](CCC(=O)O)C2)NC(c2nccs2)=N[C@H]1c1ccc(Cl)cc1Cl` [Example 12, 3-((R)-4-(((R)-6-(2,4-dichlorophenyl)-5-(ethoxycarbonyl)-2-(thiazol-2-yl)-3,6-dihydropyrimidin-4-yl)methyl)morpholin-2-yl)propanoic acid], the negative-log EC50 (pEC50) in the series with HBV is 7.59. Moreover, in series [1] (iv, 1 mg/kg), the Cmax came to 2230 ng/mL, the Tmax was 4.98 min, the clearance came out at 2.12 mL/min/kg and the half-life is 372 min. Moreover, in series [1] (iv, 1 mg/kg), the AUC(0-inf) is 7970 ng·h/mL and the Vd worked out at 0.832 L/kg. For the same compound, the AUC(0-t) in series [1] (setting [6]) is 7570 ng·h/mL. Further, in series [1] (po, 2.5 mg/kg), the Cmax came to 2660 ng/mL, the Tmax stood at 30 min, the half-life was 544 min and the AUC(0-inf) is 16800 ng·h/mL. The F in series [1] (po, 2.5 mg/kg) is 84.48%. In addition, the AUC(0-t) in series [1] (setting [7]) was 30000 ng·h/mL. For the same compound, the AUC(0-t) in series [1] (setting [8]) was found to be 15000 ng·h/mL. In series [2], this compound registered a CLint scaled at 1 μM of 18.6 mL/min/kg and a half-life at 1 μM of 93.5 min. In series [3], this compound came in with a CLint scaled at 1 μM of 17.5 mL/min/kg and a half-life at 1 μM of 197 min. Also, in series [4], the CLint scaled at 1 μM came out at 604 mL/min/kg and the half-life at 1 μM is 9.03 min. In addition, in series [5], the CLint scaled at 1 μM is 122 mL/min/kg and the half-life at 1 μM worked out at 16.6 min.

`COC(=O)C1=C(CN2CCO[C@H](CCC(=O)O)C2)NC(c2nccs2)=N[C@H]1c1ccc(Cl)cc1Cl` [Example 13, 3-((R)-4-(((R)-6-(2,4-dichlorophenyl)-5-(methoxycarbonyl)-2-(thiazol-2-yl)-3,6-dihydropyrimidin-4-yl)methyl)morpholin-2-yl)propanoic acid] had a pEC50 with HBV of 7.55. Also, in series [1] (iv, 1 mg/kg), the concentration peaked (Cmax) at 2920 ng/mL, the time of peak concentration (Tmax) was found to be 4.98 min, the clearance amounted to 1.49 mL/min/kg and the half-life was 305 min. Besides, in series [1] (iv, 1 mg/kg), the AUC(0-inf) is 11600 ng·h/mL and the Vd came to 0.526 L/kg. Further, the AUC(0-t) in series [1] (setting [6]) was determined as 11200 ng·h/mL. In series [1] (po, 2.5 mg/kg), the peak concentration (Cmax) is 6410 ng/mL, the time of peak concentration (Tmax) turned out to be 40 min, the half-life was 317 min and the AUC(0-inf) was 33300 ng·h/mL. For the same compound, the F in series [1] (po, 2.5 mg/kg) came out at 105.6%. For the same compound, in series [1] (setting [7]), the AUC(0-t) was 64400 ng·h/mL. Moreover, the AUC(0-t) in series [1] (setting [8]) stood at 32200 ng·h/mL. In addition, in series [2], the CLint scaled at 1 μM worked out at 17.2 mL/min/kg and the half-life at 1 μM amounted to 101 min. In series [3], this compound came in with a CLint scaled at 1 μM of 5.51 mL/min/kg and a half-life at 1 μM of 627 min. In series [4], the CLint scaled at 1 μM worked out at 135 mL/min/kg and the half-life at 1 μM is 40.4 min. In series [5], this compound gave a CLint scaled at 1 μM of 36 mL/min/kg and a half-life at 1 μM of 56.4 min.
